Experimental data reported in patent US20070128217A1 (priority 2003, published 2007).

Experiments:
[1] = system: rabbit serum obtained by immunizing a rabbit with the SARS-CoV strain Frankfurt 1; format: binding; design: Binding of a rabbit serum to linear peptides / Binding of a rabbit serum to looped peptides / Rabbit serum linear peptides / Rabbit serum looped peptides / Binding of a rabbit serum to linear peptides of protein N of SARS-CoV Urbani (Rabbit serum linear peptides) / Binding of a rabbit serum to looped/cyclic peptides of protein N of SARS-CoV Urbani (Rabbit serum looped peptides): unit not given here
[2] = system: antibodies in sera from SARS patients (sera 1a, 1b, 2, 6, 37, 62, London, SARS-yellow, SARS-green); format: binding, human; design: Binding of serum 6 to linear peptides of protein X1 of SARS-CoV Urbani / Binding of serum 37 to linear peptides of protein X1 of SARS-CoV Urbani / Binding of serum 6 to looped/cyclic peptide (PEPSCAN-ELISA) / Binding of serum 37 to looped/cyclic peptide (PEPSCAN-ELISA) / Binding of serum 37 to looped/cyclic peptides of protein X1 of SARS-CoV Urbani / Binding of serum 6 to linear peptides of protein X2 / Binding of serum 37 to linear peptides of protein X2 / Binding of serum 37 to looped/cyclic peptides of protein X2 of SARS-CoV Urbani / Binding of serum 6 to linear peptides of protein M of SARS-CoV Urbani / Binding of serum 37 to linear peptides of protein M of SARS-CoV Urbani / Binding of serum 6 to looped/cyclic peptides of protein M of SARS-CoV Urbani / Binding of serum 37 to looped/cyclic peptides of protein M of SARS-CoV Urbani / Binding of serum 6 to linear peptides of protein X3 of SARS-CoV Urbani / Binding of serum 37 to linear peptides of protein X3 of SARS-CoV Urbani / Binding of serum 37 to looped/cyclic peptides of protein X3 of SARS-CoV Urbani / Binding of serum 6 to linear peptides of protein X4 of SARS-CoV Urbani / Binding of serum 37 to linear peptides of protein X4 of SARS-CoV Urbani / Binding of serum 37 to looped/cyclic peptides of protein X4 of SARS-CoV Urbani / Binding of serum 6 to linear peptides of protein X5 of SARS-CoV Urbani / Binding of serum 37 to linear peptides of protein X5 of SARS-CoV Urbani / Binding of serum 37 to looped/cyclic peptides of protein X5 of SARS-CoV Urbani / Binding of serum 6 to linear peptides of protein N of SARS-CoV Urbani / Binding of serum 37 to linear peptides of protein N of SARS-CoV Urbani / Binding of serum 6 to linear peptide (PEPSCAN-ELISA) / Binding of serum 1a to looped/cyclic peptides of protein N of SARS-CoV Urbani / Binding of serum 1b to looped/cyclic peptides of protein N of SARS-CoV Urbani / Binding of serum 2 to looped/cyclic peptides of protein N of SARS-CoV Urbani / Binding of serum 6 to looped/cyclic peptides of protein N of SARS-CoV Urbani / Binding of serum 37 to looped/cyclic peptides of protein N of SARS-CoV Urbani / Binding of serum 62 to looped/cyclic peptides of protein N of SARS-CoV Urbani / Binding of serum London to looped/cyclic peptides of protein N of SARS-CoV Urbani / Binding of serum SARS-green to looped/cyclic peptides of protein N of SARS-CoV Urbani: unit not given here
[3] = system: control sera (pooled serum of ten healthy LUMC hospital workers; commercial negative donor pooled serum from the Dutch bloodbank); format: binding, human; design: Binding of Control serum LUMC to linear peptides / Binding of Control serum Blood-bank to linear peptides / Binding of Control serum LUMC to looped peptides / Binding of Control Serum Blood-Bank to Looped peptides / Binding of Control serum LUMC to linear peptides of the protein M of SARS-CoV Urbani / Binding of Control serum Blood-bank to linear peptides of the protein M of SARS-CoV Urbani / Binding of Control serum LUMC to looped peptides of the protein M of SARS-CoV Urbani / Binding of Control Serum Blood-Bank to Looped peptides of the protein M of SARS-CoV Urbani: unit not given here

| Sequence | Rabbit serum linear peptides [1] | Rabbit serum looped peptides [1] | Binding of serum 1a to linear peptides of protein X4 of SARS-CoV Urbani [2] | Binding of serum 1a to looped/cyclic peptides of protein X4 of SARS-CoV Urbani [2] | Binding of serum 1b to linear peptides of protein X4 of SARS-CoV Urbani [2] | Binding of serum 1b to looped/cyclic peptides of protein X4 of SARS-CoV Urbani [2] | Binding of serum 2 to linear peptides of protein X4 of SARS-CoV Urbani [2] | Binding of serum 2 to looped/cyclic peptides of protein X4 of SARS-CoV Urbani [2] | Binding of serum 6 to linear peptides of protein X4 of SARS-CoV Urbani [2] | Binding of serum 6 to looped/cyclic peptides of protein X4 of SARS-CoV Urbani [2] | Binding of serum 37 to linear peptides of protein X4 of SARS-CoV Urbani [2] | Binding of serum 37 to looped/cyclic peptides of protein X4 of SARS-CoV Urbani [2] | Binding of serum 62 to linear peptides of protein X4 of SARS-CoV Urbani [2] | Binding of serum 62 to looped/cyclic peptides of protein X4 of SARS-CoV Urbani [2] | Binding of serum London to linear peptides of protein X4 of SARS-CoV Urbani [2] | Binding of serum London to looped/cyclic peptides of protein X4 of SARS-CoV Urbani [2] | Binding of Control Serum Blood-Bank to Looped peptides [3] | Binding of Control serum Blood-bank to linear peptides [3] | Binding of Control serum LUMC to linear peptides [3] | Binding of Control serum LUMC to looped peptides [3] | other results |
| --- | --- | --- | --- | --- | --- | --- | --- | --- | --- | --- | --- | --- | --- | --- | --- | --- | --- | --- | --- | --- | --- |
| LIVFTSCELYHYQEC | 0.5 | 0.5 | 0.8 | 0.8 | 0.8 | 0.6 | 0.6 | 0.6 | 0.6 | 0.5 | 1.0 | 0.7 | 1.0 | 0.7 | 0.8 | 0.3 | 0.7 | 0.6 | 0.7 | 0.8 | Binding of serum SARS-green to linear peptides of protein X4 of SARS-CoV Urbani [2]: 1.1; Binding of serum SARS-green to looped/cyclic peptides of protein X4 of SARS-CoV Urbani [2]: 0.5; Binding of serum SARS-yellow to linear peptides of protein X4 of SARS-CoV Urbani [2]: 0.6; Binding of serum SARS-yellow to looped/cyclic peptides of protein X4 of SARS-CoV Urbani [2]: 0.6 |
| LIYFLQCINACRIIM |  |  |  |  |  |  |  |  |  |  |  |  |  |  |  |  | 0.9 | 0.6 | 0.6 | 0.7 | Binding of a rabbit serum to linear peptides [1]: 0.1; Binding of a rabbit serum to looped peptides [1]: 0.3; Binding of serum 1a to linear peptides of protein X1 of SARS-CoV Urbani [2]: 0.7; Binding of serum 1a to looped/cyclic peptide (PEPSCAN-ELISA) [2]: 0.2; Binding of serum 1b to linear peptides of protein X1 of SARS-CoV Urbani [2]: 0.6; Binding of serum 1b to looped/cyclic peptide (PEPSCAN-ELISA) [2]: 0.4; Binding of serum 2 to linear peptides of protein X1 of SARS-CoV Urbani [2]: 0.6; Binding of serum 2 to looped/cyclic peptide (PEPSCAN-ELISA) [2]: 0.7; Binding of serum 6 to linear peptides of protein X1 of SARS-CoV Urbani [2]: 0.5; Binding of serum 6 to looped/cyclic peptide (PEPSCAN-ELISA) [2]: 1.2; Binding of serum 37 to linear peptides of protein X1 of SARS-CoV Urbani [2]: 0.6; Binding of serum 37 to looped/cyclic peptide (PEPSCAN-ELISA) [2]: 0.2; Binding of serum 62 to linear peptides of protein X1 of SARS-CoV Urbani [2]: 0.6; Binding of serum 62 to looped/cyclic peptide (PEPSCAN-ELISA) [2]: 0.4; Binding of serum London to linear peptides of protein X1 of SARS-CoV Urbani [2]: 0.3; Binding of serum London to looped/cyclic peptide (PEPSCAN-ELISA) [2]: 1.1; Binding of serum SARS-green to linear peptides of protein X1 of SARS-CoV Urbani [2]: 0.2; Binding of serum SARS-green to looped/cyclic peptide (PEPSCAN-ELISA) [2]: 0.6; Binding of serum SARS-yellow to linear peptides of protein X1 of SARS-CoV Urbani [2]: 0.4; Binding of serum SARS-yellow to looped/cyclic peptide (PEPSCAN-ELISA) [2]: 0.6 |
| LKEPCPSGTYEGNSP | 0.4 | 0.0 | 0.7 | 0.6 | 0.4 | 0.5 | 0.4 | 0.5 | 0.3 | 0.3 | 0.6 | 0.5 | 0.7 | 0.6 | 0.9 | 0.3 | 0.5 | 0.6 | 0.3 | 0.7 | Binding of serum SARS-green to linear peptides of protein X4 of SARS-CoV Urbani [2]: 0.5; Binding of serum SARS-green to looped/cyclic peptides of protein X4 of SARS-CoV Urbani [2]: 0.6; Binding of serum SARS-yellow to linear peptides of protein X4 of SARS-CoV Urbani [2]: 0.2; Binding of serum SARS-yellow to looped/cyclic peptides of protein X4 of SARS-CoV Urbani [2]: 0.2 |
| LKILVRYNTRGNTYS | 0.9 | 0.1 |  |  |  |  |  |  |  |  |  |  |  |  |  |  | 0.4 | 0.7 | 0.5 | 0.6 | Binding of serum 1a to linear peptides of protein X5 of SARS-CoV Urbani [2]: 0.7; Binding of serum 1a to looped/cyclic peptides of protein X5 of SARS-CoV Urbani [2]: 0.5; Binding of serum 1b to linear peptides of protein X5 of SARS-CoV Urbani [2]: 0.6; Binding of serum 1b to looped/cyclic peptides of protein X5 of SARS-CoV Urbani [2]: 0.4; Binding of serum 2 to linear peptides of protein X5 of SARS-CoV Urbani [2]: 0.8; Binding of serum 2 to looped/cyclic peptides of protein X5 of SARS-CoV Urbani [2]: 0.6; Binding of serum 6 to linear peptides of protein X5 of SARS-CoV Urbani [2]: 0.8; Binding of serum 6 to looped/cyclic peptides of protein X5 of SARS-CoV Urbani [2]: 0.5; Binding of serum 37 to linear peptides of protein X5 of SARS-CoV Urbani [2]: 0.7; Binding of serum 37 to looped/cyclic peptides of protein X5 of SARS-CoV Urbani [2]: 0.5; Binding of serum 62 to linear peptides of protein X5 of SARS-CoV Urbani [2]: 0.8; Binding of serum 62 to looped/cyclic peptides of protein X5 of SARS-CoV Urbani [2]: 0.7; Binding of serum London to linear peptides of protein X5 of SARS-CoV Urbani [2]: 0.7; Binding of serum London to looped/cyclic peptides of protein X5 of SARS-CoV Urbani [2]: 0.2; Binding of serum SARS-green to linear peptides of protein X5 of SARS-CoV Urbani [2]: 0.6; Binding of serum SARS-green to looped/cyclic peptides of protein X5 of SARS-CoV Urbani [2]: 0.4; Binding of serum SARS-yellow to linear peptides of protein X5 of SARS-CoV Urbani [2]: 0.3; Binding of serum SARS-yellow to looped/cyclic peptides of protein X5 of SARS-CoV Urbani [2]: 0.8 |
